Laboratory results taken from ChEMBL document CHEMBL5614376, “Discovery of MT-1207: A Novel, Potent Multitarget Inhibitor as a Promising Clinical Candidate for the Treatment of Hypertension” (J Med Chem, 2024).
Active and inactive are the calls of the source. No cut-off for these calls is given here.

What was measured:
[1] = Metabolic stability in human liver microsomes assessed as drug elimination at 10 umol/L incubated for 5 mins in presence of NADPH by LC-MS/MS analysis; type: ADME, Microsome; details: 10 µM, dose 10 µmol/L
[2] = Plasma protein binding in Sprague-Dawley rat at 0.1 uM incubated for 30 mins; type: ADME, cell-free; details: read-out: PPB (converted)
[3] = Plasma protein binding in Beagle dog at 0.1 uM incubated for 30 mins; type: ADME, cell-free, Canis lupus familiaris; details: read-out: PPB (converted)
[4] = Plasma protein binding in Beagle dog at 10 uM incubated for 30 mins; type: ADME, cell-free, Canis lupus familiaris; details: read-out: PPB (converted)
[5] = Plasma protein binding in Cynomolgus monkey at 10 uM incubated for 30 mins; type: ADME, cell-free, Macaca fascicularis; details: read-out: PPB (converted)
[6] = Plasma protein binding in human at 0.1 uM incubated for 30 mins; type: ADME, cell-free; details: read-out: PPB (converted)
[7] = Plasma protein binding in human at 10 uM incubated for 30 mins; type: ADME, cell-free; details: read-out: PPB (converted)
[8] = Metabolic stability in Beagle dog plasma assessed as enzymatic hydrolysis at 50 to 10000 ng/ml incubated upto 120 mins; type: ADME, cell-free, Canis lupus familiaris; details: 2 h, dose 50-10000 ng/ml
[9] = Metabolic stability in human liver microsomes assessed as drug metabolism at 10 umol/L incubated upto 120 mins in presence of NADPH by LC-MS/MS analysis; type: ADME, Microsome; details: 2 h, 10 µM, dose 10 µmol/L
[10] = Metabolic stability in rat liver microsomes assessed as drug elimination at 10 umol/L incubated for 5 mins in presence of NADPH by LC-MS/MS analysis; type: ADME, Microsome; details: 10 µM, dose 10 µmol/L
[11] = Metabolic stability in macaque liver microsomes assessed as drug elimination at 10 umol/L incubated for 5 mins in presence of NADPH by LC-MS/MS analysis; type: ADME, Microsome; details: macaca, 10 µM, dose 10 µmol/L
[12] = Metabolic stability in human liver microsomes assessed as compound remaining at 10 umol/L incubated upto 120 mins in presence of NADPH by LC-MS/MS analysis; type: ADME, Microsome; details: dose 10 µmol/L, read-out: Stability
[13] = Metabolic stability in Beagle dog liver microsomes assessed as compound remaining at 10 umol/L incubated upto 120 mins in presence of NADPH by LC-MS/MS analysis; type: ADME, Canis lupus familiaris, Microsome; details: dose 10 µmol/L, read-out: Stability
[14] = Half life in Sprague-Dawley rat at 1 mg/kg, iv measured for 24 hrs by UPLC/MS/MS analysis; type: ADME, organism-based; details: in vivo
[15] = Apparent volume of distribution during terminal phase in Sprague-Dawley rat at 1 mg/kg, iv measured for 24 hrs by UPLC/MS/MS analysis; type: ADME, organism-based; details: in vivo
[16] = Apparent oral clearance in Sprague-Dawley rat at 1 mg/kg, po measured for 24 hrs by UPLC/MS/MS analysis; type: ADME, organism-based; details: in vivo
[17] = AUC (0 to t) in Sprague-Dawley rat at 9 mg/kg, po measured for 24 hrs by UPLC/MS/MS analysis; type: ADME, organism-based; details: in vivo
Rattus norvegicus [18] = experiment: Antihypertensive activity in 2K2C renovascular hypertensive Sprague-Dawley rat model assessed as decrease in diastolic blood pressure at 10 mg/kg, po measured after 9 weeks; type: functional, organism-based
Rattus norvegicus [19] = experiment: Effect on heart rate in 2K2C renovascular hypertensive Sprague-Dawley rat model at 10 mg/kg, po measured after 9 weeks; type: functional, organism-based
Rattus norvegicus [20] = experiment: Effect on serum creatinine level in 2K2C renovascular hypertensive Sprague-Dawley rat model at 10 mg/kg, po measured after 9 weeks by biochemical analysis; type: functional, organism-based
Rattus norvegicus [21] = experiment: Effect on postural hypotension in Sprague-Dawley rat assessed as change in systolic blood pressure at 5 mg/kg, po treated for >30 mins followed by induction of postural hypotension measured 3 secs after postural change (reference value: 124 +/- 10 mmHg); type: functional; details: time > 30.05 min, 0.5008 h
Rattus norvegicus [22] = experiment: Effect on postural hypotension in Sprague-Dawley rat assessed as change in systolic blood pressure at 5 mg/kg, po treated for >30 mins followed by induction of postural hypotension measured 10 secs after postural change (reference value: 127 +/- 12 mmHg); type: functional; details: time > 30.17 min, 0.5028 h
Rattus norvegicus [23] = experiment: Effect on postural hypotension in Sprague-Dawley rat assessed as change in systolic blood pressure at 10 mg/kg, po treated for >30 mins followed by induction of postural hypotension measured 10 secs after postural change (reference value: 127 +/- 12 mmHg); type: functional; details: time > 30.17 min, 0.5028 h
Rattus norvegicus [24] = experiment: Effect on postural hypotension in Sprague-Dawley rat assessed as change in systolic blood pressure at 2.5 mg/kg, po treated for >30 mins followed by induction of postural hypotension measured 60 secs after postural change (reference value: 127 +/- 10 mmHg); type: functional; details: time > 31 min
[25] = Tmax in female Sprague-Dawley rat at 30 mg/kg, po measured on day 1 by UP/LC/MS/MS analysis; type: ADME, organism-based; details: in vivo, time 1 day
[26] = Cmax in female Sprague-Dawley rat at 30 mg/kg, po measured on day 1 by UP/LC/MS/MS analysis; type: ADME, organism-based; details: in vivo, time 1 day
[27] = AUC (0 to t) in female Sprague-Dawley rat at 30 mg/kg, po measured on day 1 by UP/LC/MS/MS analysis; type: ADME, organism-based; details: in vivo, time 1 day
[28] = Tmax in male Sprague-Dawley rat at 30 mg/kg, po qd treated for 13 weeks consecutively measured after recovery period on day 91 by UP/LC/MS/MS analysis; type: ADME, organism-based; details: in vivo, time 91 day
[29] = Cmax in male Sprague-Dawley rat at 10 mg/kg, po qd treated for 13 weeks consecutively measured after recovery period on day 91 by UP/LC/MS/MS analysis; type: ADME, organism-based; details: in vivo, time 91 day
[30] = Cmax in male Sprague-Dawley rat at 30 mg/kg, po qd treated for 13 weeks consecutively measured after recovery period on day 91 by UP/LC/MS/MS analysis; type: ADME, organism-based; details: in vivo, time 91 day
[31] = Cmax in female Sprague-Dawley rat at 100 mg/kg, po qd treated for 13 weeks consecutively measured after recovery period on day 91 by UP/LC/MS/MS analysis; type: ADME, organism-based; details: in vivo, time 91 day
[32] = AUC (0 to t) in male Sprague-Dawley rat at 10 mg/kg, po qd treated for 13 weeks consecutively measured after recovery period on day 91 by UP/LC/MS/MS analysis; type: ADME, organism-based; details: in vivo, time 91 day

With Cl.c1ccc2c(c1)nnn2CCCCN1CCN(c2nsc3ccccc23)CC1 the Drug excretion [1] was “Active”, the fraction unbound at 0.5 h, 0.1 µM [2] was 0.022 and the fraction unbound at 0.5 h, 0.1 µM [3] was 0.012. It also gave a fraction unbound at 0.5 h, 10 µM [4] of 0.007, a fraction unbound at 0.5 h, 10 µM [5] of 0.005 and a fraction unbound at 0.5 h, 0.1 µM [6] of 0.003. For the same molecule, the fraction unbound at 0.5 h, 10 µM [7] was 0.004, the Stability [8] was “Stable” and the Drug metabolism [9] was “Metabolite_Detected”. The Drug excretion [10] was “Active”, the Drug excretion [11] was “Active” and the remaining at 2 h, 10 µM [12] was 23.9%. The remaining at 2 h, 10 µM [13] was 6.04%, the half-life [14] was 1.3 h and the Vz/F [15] was 4.5 L. The CL/F [16] was 388 mL/min, the AUC(0-t) at 24 h [17] was 605 ng·h/mL and the Activity (Rattus norvegicus [18]) was “Active”. The Activity (Rattus norvegicus [19]) was “Active”, the Activity (Rattus norvegicus [20]) was “Active” and the Activity (Rattus norvegicus [21]) was 80 mmHg. It also gave an Activity (Rattus norvegicus [22]) of 82 mmHg, an Activity (Rattus norvegicus [23]) of 84 mmHg and an Activity (Rattus norvegicus [24]) of 93 mmHg. For the same molecule, the Tmax [25] was 1 h, the Cmax [26] was 408 ng/mL and the AUC(0-t) at 24 h [27] was 1440 ng·h/mL. It also gave a Tmax [28] of 1 h, a Cmax [29] of 36.2 ng/mL and a Cmax [30] of 238 ng/mL. The Cmax [31] was 745 ng/mL and the AUC(0-t) at 2184 h [32] was 112 ng·h/mL.
